Data: US20160008339A1, “PSORALEN DERIVATIVES FOR PREVENTING OR TREATING HEART FAILURE OR CARDIAC HYPERTROPHY” (MAX-DELBRUCK-CENTRUM FUR MOLEKULARE MEDIZIN, priority 2012, published 2016)

Tests used:
[1] = system: GαqRC and p63RhoGEF (Gαq coupled activation of RhoA); assay: Rhotekin-based precipitation of RhoA-GTP, HEK293 transfected with GαqRC / p63RhoGEF; format: cell-based, human; conditions: 50 μmol/L
Description: HEK293 cells were seeded in 6-well plates. One day later the cells were transfected with the following plasmid DNAs:
After additional 24 hours the cells were treated with compound 31413 (50 μmol/L) or DMSO for 30 min at 37° C. Subsequently, the cells were lysed in precipitation buffer (50 mM Tris pH 7.4, 150 mmol/L NaCl, 4 mmol/L MgCl2; 10% v/v glycerol, 1% octylphenoxypolyethoxyethanol [IPEGAL]) and centrifugated 20000 g for two minutes to remove cell debris. 40 μl of the lysate were taken for the determination of the total RhoA content. The residual lysate was incubated with 40 μl GSH-sepharose coupled GST-rhotekin for one hour at 4° C. Then, the GSH-sepharose was washed twice with precipitation buffer, enriched with SDS-PAGE loading buffer and heated 5 min at 90° C. […] The ratio between total RhoA and Rho-GTP was densitometrically determined.
The activation state of RhoA was determined with a Rho binding region of the rhotekin protein, a Rho effector, immobilised on a sepharose bead in the presence and absence of compound 31413. […]
GTP-bound RhoA was detected by rhotekin precipitation (FIG. 3). The precipitation of RhoA from transfected HEK293 cells was performed with a rhotekin sepharose, and analysed with SDS-PAGE and immunoblotting with a RhoA specific antibody. […] The precipitated RhoA-GTP was separated with SDS-PAGE, blotted and detected with a specific anti-RhoA antibody.

[2] = system: primary neonatal rat cardiomyocytes; assay: Beat rate of neonatal cardiomyocytes counted by light microscope; format: cell-based; conditions: for beat rate after PE stimulation: PE 6 h
Description: For cultivation of primary neonatal rat cardiomyocytes, hearts of two to three days old rats were obtained and quickly stored on ice in ADS buffer (116.4 mM NaCl, 5.4 mM KC, 5.6 mM dextrose, 10.9 mM NaH2PO4, 405.7 μmol/L MgSO4, 20 mM Hepes, pH 7.3). Under sterile conditions, the hearts were cleaned from blood and vessels, cut into small pieces and transferred into falcon tubes. The ADS buffer was exchanged against an enzyme solution (see table below). Within four cycles each with five ml enzyme solution and an enzyme mix comprising collagenase and pancreatin, isolated cells were released from the tissue (12 min at 37° C. in a water bath with approx. 220 rpm).
The supernatant with the isolated cells was collected, transferred in fetal calf serum (FCS, 2.5 ml on ice) and subsequently centrifugated in FCS (100 g for 3 min at 4° C.). The supernatant of the centrifugation was discarded and the pellet was resuspended in 5 ml cold plating medium. After an additional centrifugation, the pellet was resuspended in 15 ml medium, transferred into a dish and incubated for two hours at 37° C. to allow the settling of the fibroblasts. The cardiomyocytes in the supernatant were counted with a Scepter Handheld Automated Cell Counter and transferred in dishes coated with gelatine. On the following day the medium was changed.
The neonatal cardiomyocytes were seeded in 6-well plates with 1.5×10^6 cell per well. The stimulation with 100 μmol/L phenylephrine (PE) was performed for six or twenty four hours at 37° C. Untreated cells served as control. The effect of compound 31413 on the α-adrenergic stimulation of the cardiomyocytes was determined after incubation with the compound for three hours. To do this, the contraction of the cells was counted within a minute and different conditions were compared.
Isolated neonatal cardiomyocytes were used to investigate the relation between AKAP-Lbc induced RhoA activation and the contractility of the heart. After a chronic stimulation of the α1-adreno receptors (AR) with the specific agonist PE for six hours, the beats of the cardiomyocytes were counted over a period of 15 s and a beat rate per minute (bpm) was calculated. An increase of the beat rate of the cardiomyocytes from 100 bpm to 160 beats per minute could be observed. […] The beat rate of neonatal cardiomyocytes was counted with help of a light microscope.

[3] = system: primary neonatal cardiomyocytes (α-sceletal muscle actin mRNA); assay: Hypertrophy marker α-actin 1 mRNA by quantitative real-time PCR; format: cell-based, rat
Description: Primary neonatal cardiomyocytes were prepared as described above. The cardiomyocytes were stimulated for 24 or 48 hours with 100 μmol/L phenylephrin (PE) or 10 μmol/L isoproterenol (ISO) in absence or presence of 10 μmol/L or 50 μmol/L of compound 31413.
After 24 hours or 48 hour of stimulation, the medium was removed, and every well was washed with 2 ml phosphate buffered saline and fixed with 200 μl TRIzol. The cells were removed from each well and transferred into a 1.5 ml Eppendorf tube, respectively.
For cell breakdown, 40 μl chloroform was added to each Eppendorf tube. The broken cells were centrifuged for 15 min at 1400 g and 4° C. The supernatant containing RNA/DNA was taken, mixed with 100 μl isopropanol and centrifugated for 20 min at 1500 g and 4° C. The supernatant was discarded and the pellet was resuspended in 500 μL ethanol. The RNA from the pellet was purified by chromatography. The concentration of the RNA was determined by NANODROP.
The quantification of the hypertrophy marker α-sceletal muscle actin (α-actin 1) mRNA was performed by quantitative real-time PCR. First, the RNA was transcribed to a cDNA with a SuperScript™III First-Strand Synthesis SuperMix (Invitrogen) and random hexamer primers. The cDNA was amplified in a PCR reaction in an Applied Biosystem StepOne™ Real-Time PCR System. Glycerinealdehydephosphate dehydrogenase and NTC (no template control) was used as controls. All samples were triplicates. The following primers have been used: […]

[4] = system: primary neonatal rat cardiomyocytes; assay: Beat frequency of neonatal cardiomyocytes by Fluo-4 calcium measurement; format: cell-based
Description: The frequency of contraction could be determined in a similar manner with a calcium sensor (Fluo-4). In a laser-scanning microscope, Fluo-4 was excited with an argon laser (488 nm) and the emission signals were detected and collected at a wavelength of 505 nm. The fluorescence intensity represented the intracellular concentration of calcium ions. Usually, the line-scan mode was used for image recording, and the line-scan images were recorded with a speed of 1.54 or 1.92 ms per line along the longitudinal axis of the cell. After the sequential image recording, a two-dimensional image with 512×100 lines or 512×2000 lines was generated and saved for later analysis.
Additional calcium measurements were performed. […] The fluorescence dye Fluo-4 was added after 20 min. Fluo-4 is a calcium sensor, which is used for investigating the calcium increase in cells. In cardiomyocytes the dye serves for examining the contractility. During contraction and relaxation, the calcium concentrations differ in the cytosol of cardiomyocytes. The fluorescence intensity of Fluo-4 increases with an increasing calcium concentration, and a decreasing calcium concentration will cause reduced fluorescence intensity. A frequency could be calculated from the fluo-4 fluorescence oscillation by a time depended analysis, wherein the fluorescence was measured over a period of two hours. The ground state at the moment before application (black), the period 10 to 30 sec after application (dark grey) and 70 to 110 sec after application (light grey) were evaluated (FIG. 5). Application refers to the adding of PE or adrenaline. […] The statistical analysis was performed according to the method of analysis of variance (ANOVA).

[5] = Fluo-4, pre-incubation 2.5 μmol/L

COc1ccc(-c2coc3cc4oc(=O)c(C)c(C)c4cc23)cc1 [Compound 31413, 3-(4-methoxyphenyl)-5,6-dimethyl-furo[3,2-g]chromen-7-one]
precipitated amount of RhoA-GTP [1]: no difference
beat rate after PE stimulation ([2]; 2.5 μmol/L compound): normalization of the beat rate
beat rate after PE stimulation ([2]; 25 μmol/L compound): arrest
beat rate after PE stimulation ([2]; 50 μmol/L compound): arrest
phenylephrine/alpha-adrenoceptor-induced increase in cardiac myocyte beating frequency ([2]; at 2.5, 10, 25 and 50 μmol/L): prevents
α-actin 1 mRNA amount ([3]; PE 100 μmol/L 24 h, compound 10 or 50 μmol/L): concentration dependent decrease
relative amount of α-actin 1 mRNA ([3]; without PE stimulation): no significant change
adrenalin (beta-adrenoceptor)-induced increase in cardiac myocyte beating frequency [4]: does not, however, affect
PE induced increase of beat rate [4, 5]: inhibited only the PE induced increase of beat rate
adrenaline induced increase of beat rate [4, 5]: not the adrenaline induced one
